Measured values taken from PMC9551036, “A selective and orally bioavailable VHL-recruiting PROTAC achieves SMARCA2 degradation in vivo” (Nature Communications, 2022).
Where “and” joins values, the source holds several entries; their conditions need not be identical. Equal entries are not always repeated. Where two headings read alike, the source gives them in different places.

Assays:
SMARCA4 = SMARCA4 (Homo sapiens, UniProt P51532); experiment: SMARCA4 capillary electrophoresis protein assay in other cell lines (HCT116, LU99, HCC-364, HCT-15, HCC4006, SK-N-AS); type: cell-based; design: endogenous in cells; host or cells: RKO, HCT116, LU99, HCC-364, HCT-15, HCC4006, SK-N-AS; conditions: for Bottom (best-fit value, % protein remaining) / DC50 / HillSlope: four-parameter fit; for LogEC50: log10 of concentration in mol/l; for DC50: protein degradation, read-out: EC50 (the source's name)
Chain of SMARCA4 (P51532 whole entry): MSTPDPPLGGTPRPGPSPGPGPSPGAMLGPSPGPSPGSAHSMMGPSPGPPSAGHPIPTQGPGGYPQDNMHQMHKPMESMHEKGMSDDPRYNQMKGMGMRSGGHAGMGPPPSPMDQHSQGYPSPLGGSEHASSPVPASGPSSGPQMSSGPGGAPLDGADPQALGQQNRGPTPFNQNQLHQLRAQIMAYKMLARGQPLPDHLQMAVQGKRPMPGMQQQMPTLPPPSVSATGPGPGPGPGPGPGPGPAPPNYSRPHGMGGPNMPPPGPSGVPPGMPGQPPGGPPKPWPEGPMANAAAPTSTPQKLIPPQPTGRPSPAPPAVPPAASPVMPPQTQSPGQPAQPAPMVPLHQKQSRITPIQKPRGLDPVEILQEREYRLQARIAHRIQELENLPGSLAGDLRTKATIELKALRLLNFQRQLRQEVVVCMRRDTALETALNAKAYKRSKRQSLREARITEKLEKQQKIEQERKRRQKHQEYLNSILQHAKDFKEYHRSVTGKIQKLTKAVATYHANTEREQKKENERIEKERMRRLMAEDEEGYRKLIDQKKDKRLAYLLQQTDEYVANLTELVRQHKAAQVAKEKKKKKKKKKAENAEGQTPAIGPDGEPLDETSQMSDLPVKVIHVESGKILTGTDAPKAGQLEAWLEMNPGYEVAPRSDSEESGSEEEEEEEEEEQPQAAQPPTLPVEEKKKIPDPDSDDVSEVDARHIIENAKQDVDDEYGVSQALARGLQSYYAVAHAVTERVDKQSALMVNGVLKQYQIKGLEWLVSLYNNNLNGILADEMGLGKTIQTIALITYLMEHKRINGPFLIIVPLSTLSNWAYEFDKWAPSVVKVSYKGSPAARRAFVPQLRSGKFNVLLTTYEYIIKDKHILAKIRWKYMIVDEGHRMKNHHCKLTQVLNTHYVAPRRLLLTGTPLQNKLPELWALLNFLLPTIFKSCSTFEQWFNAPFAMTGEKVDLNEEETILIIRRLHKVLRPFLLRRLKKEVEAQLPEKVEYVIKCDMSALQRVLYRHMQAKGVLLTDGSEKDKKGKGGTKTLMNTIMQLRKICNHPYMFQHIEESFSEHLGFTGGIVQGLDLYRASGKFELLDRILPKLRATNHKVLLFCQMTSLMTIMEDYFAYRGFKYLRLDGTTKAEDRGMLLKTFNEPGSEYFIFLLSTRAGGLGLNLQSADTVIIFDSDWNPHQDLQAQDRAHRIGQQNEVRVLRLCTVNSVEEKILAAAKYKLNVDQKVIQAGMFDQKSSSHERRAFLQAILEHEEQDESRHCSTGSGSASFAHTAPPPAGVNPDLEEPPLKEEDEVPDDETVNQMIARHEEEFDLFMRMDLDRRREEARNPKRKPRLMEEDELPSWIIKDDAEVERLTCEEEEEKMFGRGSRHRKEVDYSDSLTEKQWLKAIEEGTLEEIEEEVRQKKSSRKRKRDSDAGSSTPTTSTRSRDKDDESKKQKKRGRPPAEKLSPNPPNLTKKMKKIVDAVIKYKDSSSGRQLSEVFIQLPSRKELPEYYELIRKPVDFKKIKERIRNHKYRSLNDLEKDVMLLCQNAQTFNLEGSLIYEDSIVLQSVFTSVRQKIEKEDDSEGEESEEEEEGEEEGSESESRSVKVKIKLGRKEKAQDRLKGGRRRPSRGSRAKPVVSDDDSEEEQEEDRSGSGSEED
Procedure: 130,000–200,000 cells were seeded in 24-well plates and incubated until settled down or overnight. Compounds were dissolved in DMSO and added to cells in indicated concentrations using a digital dispenser following an optional media change. […] For SMARCA2/4 half-life determination, 150,000 or 200,000 cells were seeded in 24-well plates. […] For SMARCA2/4 re-synthesis measurements, 200,000 cells were seeded in 24-well plates. […] Medium was removed, cells were washed with PBS and lysed with 80 µl Lysis Buffer (MSD Tris Lysis Buffer (#R60TX-2) + Halt Inhibitor Cocktail (100x) + Benzonase 0.5 µL/ml). Samples were frozen at −80 °C and thawed at room temperature before use. Samples were transferred to a V-bottom plate and insoluble debris was pelleted by centrifugation for 5 min at maximum speed. The supernatant was transferred to a fresh plate. Master Mix and Ladder were prepared according to manufacturer’s instructions for 12–230 kDa Wes Separation Module, 8 × 25 capillary cartridges, Protein Simple #SM-W004 with Anti-Rabbit Detection Module for Wes, Peggy Sue or Sally Sue, Protein Simple #DM-001. 4.8 µl lysate were mixed with 1.2 µl Master Mix to achieve a protein concentration of ~0.5 µg/µl. […] Wes plates were prepared and run according to manufacturer’s instructions. Proteins were quantified with accompanying Compass Software. SMARCA2/4 protein levels were normalised to GAPDH. […] Where applicable, curves were fitted using a 4-parametric logistic model.

[1] = tested on: panel of cell lines (A549, HCC-364, HCC-515, HCC4006, KYSE-30, LU99, LXFA_629L, LXFA_923L, LXFL_529L, LXFL_1121L, MP38, NCI-H23, NCI-H1355, OV-90, SK-MEL-5 …); experiment: Cell viability assay (CellTiter Glo) in a panel of cell lines; type: cell-based, human;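 for % Viability: percent of DMSO-treated control cells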
Procedure: 500–2000 cells were seeded in white, clear bottom 96-well plates (Corning or Perkin Elmer) in 180–200 µl medium per well. The next day, compounds were added using a digital dispenser and a T0 sample was measured for reference. Cells were incubated for 144–192 h, and viability (luminescence) was measured using CellTiter Glo or CellTiter Glo 2.0 (Promega) according to manufacturer’s instructions after equilibrating cells and reagents at room temperature and 10–20 min incubation time while shaking.

## Cc1ncsc1-c1ccc(C(CCC(C)CCN2CCC(c3ccc4c(c3)n(C3CCCC3)c3nc(=O)c5c(Br)cccc5n43)CC2)NC(=O)C2CC(O)CN2C(=O)C(NC(=O)C2(F)CC2)C(C)(C)C)cc1 (stereo not shown) [ACBI2]
SMARCA4; HCC4006_SM4
  Bottom (best-fit value, % protein remaining): 9.858%
  LogEC50: -7.029
  DC50: 93.5 nM
SMARCA4; HCC4006_SM4, log10[concentration (mol/l)] -6
  % protein remaining: 8.466% and 14.8549% and 6.254%
SMARCA4; HCC4006_SM4, log10[concentration (mol/l)] -8
  % protein remaining: 107.17% and 168.214% and 84.8869%
SMARCA4; HCC4006_SM4, log10[concentration (mol/l)] -10
  % protein remaining: 87.4945% and 108.459% and 92.3747%
SMARCA4; HCC-364_SM4
  Bottom (best-fit value, % protein remaining): 3.161%
  HillSlope: -1.653
  LogEC50: -7.78
  DC50: 16.6 nM
SMARCA4; HCC-364_SM4, log10[concentration (mol/l)] -6
  % protein remaining: 3.167% and 1.374% and 3.983%
SMARCA4; HCC-364_SM4, log10[concentration (mol/l)] -7
  % protein remaining: 9.937% and 9.321% and 6.672%
SMARCA4; HCC-364_SM4, log10[concentration (mol/l)] -8
  % protein remaining: 73.4926% and 97.1764% and 52.0353%
SMARCA4; HCC-364_SM4, log10[concentration (mol/l)] -9
  % protein remaining: 95.3509% and 123.202% and 101.968%
SMARCA4; HCC-364_SM4, log10[concentration (mol/l)] -10
  % protein remaining: 89.9664% and 104.013% and 115.065%
SMARCA4; HCT116, SM4
  Bottom (% protein remaining, four-parameter fit): 25.06%
  HillSlope (protein remaining): -2.072
  Top (% protein remaining, four-parameter fit): 134.1%
SMARCA4; HCT116, SM4, conc 9.54e-12 mol/l
  % protein remaining: 111.196% and 129.494%
SMARCA4; HCT116, SM4, conc 3.81e-11 mol/l
  % protein remaining: 120.316% and 148.32%
SMARCA4; HCT116, SM4, conc 1.53e-10 mol/l
  % protein remaining: 129.784% and 140.879%
SMARCA4; HCT116, SM4, conc 6.1e-10 mol/l
  % protein remaining: 129.281% and 147.637%
SMARCA4; HCT116, SM4, conc 2.44e-9 mol/l
  % protein remaining: 120.666% and 159.63%
SMARCA4; HCT116, SM4, conc 9.77e-9 mol/l
  % protein remaining: 125.866% and 131.203%
SMARCA4; HCT116, SM4, conc 3.91e-8 mol/l
  % protein remaining: 69.9313% and 71.3683%
SMARCA4; HCT116, SM4, conc 1.56e-7 mol/l
  % protein remaining: 36.8806% and 32.4224%
SMARCA4; HCT116, SM4, conc 6.25e-7 mol/l
  % protein remaining: 24.622% and 20.2431%
SMARCA4; HCT116, SM4, conc 2.5e-6 mol/l
  % protein remaining: 26.4349% and 21.0447%
SMARCA4; HCT-15_SM4
  HillSlope: -0.3445
SMARCA4; HCT-15_SM4, log10[concentration (mol/l)] -6
  % protein remaining: 18.6748% and 17.1977% and 14.8633%
SMARCA4; HCT-15_SM4, log10[concentration (mol/l)] -7
  % protein remaining: 73.6571% and 71.0762% and 61.1459%
SMARCA4; HCT-15_SM4, log10[concentration (mol/l)] -8
  % protein remaining: 98.6414% and 84.1205% and 64.0182%
SMARCA4; HCT-15_SM4, log10[concentration (mol/l)] -9
  % protein remaining: 109.23% and 94.5032% and 92.8527%
SMARCA4; HCT-15_SM4, log10[concentration (mol/l)] -10
  % protein remaining: 99.1975% and 103.016%
SMARCA4; LU99_SM4
  Bottom (best-fit value, % protein remaining): 6.337%
  HillSlope: -1.201
  LogEC50: -7.559
  DC50: 27.6 nM
SMARCA4; LU99_SM4, log10[concentration (mol/l)] -8
  % protein remaining: 52.7226% and 80.027% and 88.2243% and 72.2723%
SMARCA4; LU99_SM4, log10[concentration (mol/l)] -9
  % protein remaining: 95.2248% and 87.3538% and 102.946% and 96.8042%
SMARCA4; LU99_SM4, log10[concentration (mol/l)] -10
  % protein remaining: 95.6247% and 91.3% and 105.138% and 100.656%
SMARCA4; SK-N-AS_SM4
  Bottom (best-fit value, % protein remaining): 7.287%
  HillSlope: -0.8189
  LogEC50: -7.454
  DC50: 35.2 nM
SMARCA4; SK-N-AS_SM4, log10[concentration (mol/l)] -6
  % protein remaining: 10.7051% and 13.0346%
SMARCA4; SK-N-AS_SM4, log10[concentration (mol/l)] -8
  % protein remaining: 53.489% and 73.7834%
SMARCA4; SK-N-AS_SM4, log10[concentration (mol/l)] -9
  % protein remaining: 84.3752% and 77.8596%
SMARCA4; SK-N-AS_SM4, log10[concentration (mol/l)] -10
  % protein remaining: 91.2323% and 74.8856%
[1]; A549
  HillSlope (viability): -0.487
[1]; A549, log10 conc -7 mol/l
  % Viability: 47.919% and 42.1211%
[1]; A549, log10 conc -7.50031 mol/l
  % Viability: 60.413% and 52.9594%
[1]; A549, log10 conc -8 mol/l
  % Viability: 70.4787% and 68.1265%
[1]; A549, log10 conc -8.50031 mol/l
  % Viability: 100.959% and 102.653%
[1]; HCC4006
  HillSlope (viability): -2.51
[1]; HCC4006, log10 conc -7.10735 mol/l
  % Viability: 106.752% and 106.118%
[1]; HCC4006, log10 conc -8.31158 mol/l
  % Viability: 118.541% and 111.324%
[1]; HCC-364
  HillSlope (viability): -2.992
[1]; HCC-364, log10 conc -7.10735 mol/l
  % Viability: 39.6895% and 65.8316%
[1]; HCC-364, log10 conc -8.31158 mol/l
  % Viability: 101.18% and 100.543%
[1]; HCC-515
  HillSlope (viability): -0.931
[1]; HCC-515, log10 conc -7 mol/l
  % Viability: 21.3218% and 22.1794%
[1]; HCC-515, log10 conc -7.50031 mol/l
  % Viability: 21.1243% and 26.9825%
[1]; HCC-515, log10 conc -8 mol/l
  % Viability: 34.5235% and 34.7052%
[1]; HCC-515, log10 conc -8.50031 mol/l
  % Viability: 51.5226% and 47.9218%
[1]; KYSE-30
  HillSlope (viability): -1.122
[1]; KYSE-30, log10 conc -7.10735 mol/l
  % Viability: 99.6818% and 96.2107%
[1]; KYSE-30, log10 conc -8.31158 mol/l
  % Viability: 107.107% and 103.099%
[1]; LU99
  HillSlope (viability): -1.519
[1]; LU99, log10 conc -7.10735 mol/l
  % Viability: 81.59% and 77.7555%
[1]; LU99, log10 conc -8.31158 mol/l
  % Viability: 123.387% and 114.143%
[1]; LXFA_629L
  HillSlope (viability): -0.7355
[1]; LXFA_629L, log10 conc -7 mol/l
  % Viability: 28.2712% and 27.4037%
[1]; LXFA_629L, log10 conc -7.50031 mol/l
  % Viability: 41.2713% and 34.5184%
[1]; LXFA_629L, log10 conc -8 mol/l
  % Viability: 57.9035% and 54.0045%
[1]; LXFA_629L, log10 conc -8.50031 mol/l
  % Viability: 89.2294% and 82.1746%
[1]; LXFA_923L
  HillSlope (viability): -0.4788
[1]; LXFA_923L, log10 conc -7.50031 mol/l
  % Viability: 31.729% and 41.6954%
[1]; LXFA_923L, log10 conc -8 mol/l
  % Viability: 41.6215% and 47.8343%
[1]; LXFA_923L, log10 conc -8.50031 mol/l
  % Viability: 63.1043% and 68.2132%
[1]; LXFL_529L
  HillSlope (viability): -0.4813
[1]; LXFL_529L, log10 conc -7.50031 mol/l
  % Viability: 17.7092% and 18.3663%
[1]; LXFL_529L, log10 conc -8 mol/l
  % Viability: 23.2341% and 22.4794%
[1]; LXFL_529L, log10 conc -8.50031 mol/l
  % Viability: 25.5623% and 26.9316%
[1]; LXFL_1121L
  HillSlope (viability): -1.483
[1]; LXFL_1121L, log10 conc -7.50031 mol/l
  % Viability: 92.1257% and 100.242%
[1]; LXFL_1121L, log10 conc -8 mol/l
  % Viability: 96.5968% and 112.339%
[1]; LXFL_1121L, log10 conc -8.50031 mol/l
  % Viability: 103.275% and 116.726%
[1]; MP38
  HillSlope (viability): -1.603
[1]; MP38, log10 conc -7.50031 mol/l
  % Viability: 10.4737% and 10.5264%
[1]; MP38, log10 conc -8 mol/l
  % Viability: 48.5822% and 44.1126%
[1]; MP38, log10 conc -8.50031 mol/l
  % Viability: 84.8854% and 80.6261%
[1]; NCI-H23
  HillSlope (viability): -0.9596
[1]; NCI-H23, log10 conc -7.10735 mol/l
  % Viability: 77.4555% and 94.2831%
[1]; NCI-H23, log10 conc -8.31158 mol/l
  % Viability: 93.614% and 103.354%
[1]; NCI-H1355
  HillSlope (viability): -1.475
[1]; NCI-H1355, log10 conc -8.31158 mol/l
  % Viability: 91.2593% and 85.8715%
[1]; OV-90
  HillSlope (viability): -0.9956
[1]; OV-90, log10 conc -7.10735 mol/l
  % Viability: 57.2489% and 75.2258%
[1]; OV-90, log10 conc -8.31158 mol/l
  % Viability: 97.3183% and 109.838%
[1]; SK-MEL-5
  HillSlope (viability): -1.006
[1]; SK-MEL-5, log10 conc -7.10735 mol/l
  % Viability: 3.91% and 3.091%
[1]; SK-MEL-5, log10 conc -8.31158 mol/l
  % Viability: 29.6092% and 31.0459%
[1]; TOV-112D
  HillSlope (viability): -1.255
[1]; TOV-112D, log10 conc -7.10735 mol/l
  % Viability: 105.246% and 100.431%
[1]; TOV-112D, log10 conc -8.31158 mol/l
  % Viability: 103.581% and 98.4682%
